pIC50: −log10 of the molar value.
biological target: T1, aldosterone receptor (Rattus norvegicus, UniProt P22199); test: Binding inhibition test for aldosterone receptor ([3H]aldosterone, rat renal soluble fraction); settings: [3H]aldosterone 2 nM, rat renal soluble fraction, in the presence of 2 μM RU-486, 4° C. about 18 hours; read-out: MR IC50
T1 construct: centrifuged at 105,000 g for 30 minutes, and then a supernatant was collected as a renal soluble fraction; from tissue; host or cells: rat kidney (adrenalectomized rat), 105,000 g supernatant (cytosol)
T1 sequence (P22199 1-981): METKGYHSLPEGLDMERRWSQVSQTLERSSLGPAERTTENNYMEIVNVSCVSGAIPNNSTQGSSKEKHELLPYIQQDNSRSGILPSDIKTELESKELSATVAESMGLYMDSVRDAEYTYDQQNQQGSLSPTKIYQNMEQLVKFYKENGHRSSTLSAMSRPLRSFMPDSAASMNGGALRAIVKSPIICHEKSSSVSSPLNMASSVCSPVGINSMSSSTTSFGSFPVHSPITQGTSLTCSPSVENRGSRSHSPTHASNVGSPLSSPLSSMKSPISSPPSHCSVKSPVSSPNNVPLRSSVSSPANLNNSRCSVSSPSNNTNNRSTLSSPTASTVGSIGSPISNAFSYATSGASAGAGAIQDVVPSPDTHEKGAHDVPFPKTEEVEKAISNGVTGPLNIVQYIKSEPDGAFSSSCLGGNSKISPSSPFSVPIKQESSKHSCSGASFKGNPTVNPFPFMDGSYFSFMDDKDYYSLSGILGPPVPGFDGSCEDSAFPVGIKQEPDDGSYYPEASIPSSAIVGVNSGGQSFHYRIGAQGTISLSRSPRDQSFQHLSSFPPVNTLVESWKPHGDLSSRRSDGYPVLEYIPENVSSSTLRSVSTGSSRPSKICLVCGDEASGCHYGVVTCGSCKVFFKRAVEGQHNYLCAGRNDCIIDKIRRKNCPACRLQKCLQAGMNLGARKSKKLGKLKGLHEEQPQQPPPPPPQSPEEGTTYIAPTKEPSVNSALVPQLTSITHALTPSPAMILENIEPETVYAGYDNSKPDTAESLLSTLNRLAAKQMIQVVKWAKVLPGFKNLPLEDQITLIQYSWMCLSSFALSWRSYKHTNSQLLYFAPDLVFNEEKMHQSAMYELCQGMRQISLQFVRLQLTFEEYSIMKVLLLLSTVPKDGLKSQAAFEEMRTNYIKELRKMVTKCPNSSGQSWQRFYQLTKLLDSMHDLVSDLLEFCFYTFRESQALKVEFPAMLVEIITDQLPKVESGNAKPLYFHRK
Protocol: Binding Inhibition Test for Aldosterone Receptor
A rat was layed open in flank regions (on both sides) to remove both adrenal glands. After stitching up the incision, the rat was returnd to a breeding cage again. After removing the kidney from the rat reared for about 3 to 5 days, the kidney was homogenized in 0.1 M Tris-HCl, 0.25M sucrose, 0.1M Na2MoO4 and 2 mM DTT buffer solution (pH7.4). The resultant was centrifuged at 105,000 g for 30 minutes, and then a supernatant was collected as a renal soluble fraction.
The rat renal soluble fraction (0.5 to 1.5 mg), a labeled ligand [^3H] aldosterone (2 nM) and a test article were reacted in the presence of 2 μM RU-486 (glucocorticoid receptor antagonist) in 100 μL of total amounts at 4° C. for about 18 hours. Afterwards, to the reaction solution was added 50 μL of 5% dextran-coated activated charcoal, and the mixture was immingled, and then centrifuged at 3,000 g for 5 minutes. Then, a supernatant (100 μL) was collected and mixed with a liquid scintillator ACS-II (Amersham) (3.5 mL), and then analyzed its radioactivity by a liquid scintillation counter (manufactured by Packard, Tri Carb 2700TR). A non-specific binding was obtained by addition of 2 μM aldosterone to a reaction solution. […]
Binding inhibition rate (%)=100−{(B−N)/(B0−N)}×100
B: labeled ligand binding amounts in the presence of a test article and a labeled ligand
B0: labeled ligand binding amounts in the absence of a test article
N: labeled ligand binding amounts in the presence of excess aldosterone (2 μM)
Test example 1 was carried out for compounds obtained in the Examples.

Structure (SMILES) | pIC50
COc1cc(C(=O)Nc2ccc(-c3ccccc3NC3CCCC3)c(C)c2)ccc1S(N)(=O)=O [Example 346] | 5.96
COc1cc(C(=O)Nc2ccc(-c3ccccc3NC(C)C)c(C)c2)ccc1S(N)(=O)=O [Example 351] | 5.92
CCC(CC)NCc1cc(NC(=O)c2ccc(S(N)(=O)=O)c(OC)c2)ccc1-c1ccccc1C(F)(F)F [Example 355] | 6.00
COCCNCc1cc(NC(=O)c2ccc(S(N)(=O)=O)c(OC)c2)ccc1-c1ccccc1C(F)(F)F [Example 357] | 6.89
COc1cc(C(=O)Nc2ccc(-c3ccccc3C(F)(F)F)c(CC#N)c2)ccc1S(N)(=O)=O [Example 363] | 6.12
COCCNCc1cc(NC(=O)c2ccc(S(N)(=O)=O)c(OC)c2)ccc1-c1ccccc1OC(F)(F)F [Example 364] | 6.27
CCC(CC)NCc1cc(NC(=O)c2ccc(S(N)(=O)=O)c(OC)c2)ccc1-c1ccccc1OC(F)(F)F [Example 365] | 6.34
COc1cc(C(=O)Nc2ccc(-c3ccccc3C(F)(F)F)c(CN3CC(C)OC(C)C3)c2)ccc1S(N)(=O)=O (centres unmarked) [Example 371] | 6.35
CCOCc1cc(NC(=O)c2ccc(S(N)(=O)=O)c(OC)c2)ccc1-c1ccccc1C(F)(F)F [Example 373] | 7.00
COc1cc(C(=O)Nc2ccc(-c3ccccc3C(F)(F)F)c(CN3CC[C@H](F)C3)c2)ccc1S(N)(=O)=O [Example 376] | 6.42
COc1cc(C(=O)Nc2ccc(-c3ccccc3C(F)(F)F)c(CN3CC(F)(F)C3)c2)ccc1S(N)(=O)=O [Example 385] | 6.20
COc1cc(C(=O)Nc2ccc(-c3ccccc3C(F)(F)F)c(CN3CCSCC3)c2)ccc1S(N)(=O)=O [Example 387] | 6.44
COc1cc(C(=O)Nc2ccc(-c3ccccc3C(F)(F)F)c(CNCC(F)F)c2)ccc1S(N)(=O)=O [Example 389] | 6.25
COc1cc(C(=O)Nc2ccc(-c3ccccc3C(F)(F)F)c(CN3CCC(F)CC3)c2)ccc1S(N)(=O)=O [Example 392] | 6.35
COc1cc(C(=O)Nc2ccc(-c3ccccc3C(F)(F)F)c(CN3CCC4(CC3)OCCO4)c2)ccc1S(N)(=O)=O [Example 393] | 6.28
COc1cc(C(=O)Nc2ccc(-c3ccccc3C(F)(F)F)c(CN3CCC4(C3)OCCO4)c2)ccc1S(N)(=O)=O [Example 395] | 6.72
COc1cc(C(=O)Nc2ccc(-c3ccccc3C(F)(F)F)c(CNC3CC3)c2)ccc1S(N)(=O)=O [Example 403] | 6.20
COc1cc(C(=O)Nc2ccc(-c3ccccc3C(F)(F)F)c(Cn3cccn3)c2)ccc1S(N)(=O)=O [Example 405] | 6.68
COc1cc(C(=O)Nc2ccc(-c3ccccc3C(F)(F)F)c(Cn3nccn3)c2)ccc1S(N)(=O)=O [Example 407] | 6.59
COc1cc(C(=O)Nc2ccc(-c3ccccc3C(F)(F)F)c(COC3CCOCC3)c2)ccc1S(N)(=O)=O [Example 410] | 6.28
COc1cc(NC(=O)c2ccc(-c3ccc(F)cc3F)c(CNCC(F)F)c2)ccc1S(N)(=O)=O [Example 414] | 5.77
COc1cc(NC(=O)c2ccc(-c3ccccc3C)c(CNCC(F)F)c2)ccc1S(N)(=O)=O [Example 415] | 6.20
COc1cc(NC(=O)c2ccc(-c3ccccc3F)c(CNCC(F)F)c2)ccc1S(N)(=O)=O [Example 419] | 5.92
COc1cc(NC(=O)c2ccc(-c3ccc(F)cc3Cl)c(CNCC(F)F)c2)ccc1S(N)(=O)=O [Example 426] | 6.24
COc1cc(NC(=O)c2ccc(-c3ccccc3CC(F)(F)F)c(CNCC(F)F)c2)ccc1S(N)(=O)=O [Example 438] | > 5.00
COc1cc(NC(=O)c2ccc(-c3ccc(C)cc3C(F)(F)F)c(CNCC(F)F)c2)ccc1S(N)(=O)=O [Example 440] | > 5.00
COc1cc(NC(=O)c2ccc(-c3cc(C)ccc3C(F)(F)F)c(CNCC(F)F)c2)ccc1S(N)(=O)=O [Example 443] | > 5.00
COc1cc(NC(=O)c2ccc(-c3ccccc3C3CC3)c(CNCC(F)F)c2)ccc1S(N)(=O)=O [Example 448] | > 5.00

More lines, now with the values ahead:

pIC50 | Structure (SMILES)
6.26 | COc1cc(NC(=O)c2ccc(-c3ccccc3Cl)c(CNCC(F)F)c2)ccc1S(N)(=O)=O [Example 451]
> 5.00 | COc1cc(NC(=O)c2ccc(-c3cccc(Cl)c3Cl)c(CNCC(F)F)c2)ccc1S(N)(=O)=O [Example 454]
> 5.00 | COc1cc(NC(=O)c2ccc(-c3cc(F)ccc3Cl)c(CNCC(F)F)c2)ccc1S(N)(=O)=O [Example 457]
> 5.00 | COc1cc(NC(=O)c2ccc(-c3ccc(C(F)(F)F)cc3Cl)c(CNCC(F)F)c2)ccc1S(N)(=O)=O [Example 460]
> 5.00 | CCOc1ncccc1-c1ccc(C(=O)Nc2ccc(S(N)(=O)=O)c(OC)c2)cc1CNCC(F)F [Example 463]
> 5.00 | COc1cc(NC(=O)c2ccc(-c3ccccc3C(C)(F)F)c(CNCC(F)F)c2)ccc1S(N)(=O)=O [Example 469]
> 5.00 | COc1cc(NC(=O)c2ccc(-c3ccc(F)cc3C3CC3)c(CNCC(F)F)c2)ccc1S(N)(=O)=O [Example 470]
> 5.00 | COc1cc(NC(=O)c2ccc(-c3ccc(Cl)cc3C(F)(F)F)c(CNCC(F)F)c2)ccc1S(N)(=O)=O [Example 474]
> 5.00 | COc1cc(NC(=O)c2ccc(-c3ccccc3OC(F)(F)C(F)F)c(CNCC(F)F)c2)ccc1S(N)(=O)=O [Example 478]
> 5.00 | CCCOc1ncccc1-c1ccc(C(=O)Nc2ccc(S(N)(=O)=O)c(OC)c2)cc1CNCC(F)F [Example 481]
> 5.00 | COc1cc(NC(=O)c2ccc(-c3ccc(F)cc3C(F)(F)F)c(CNCC(F)F)c2)ccc1S(N)(=O)=O [Example 486]
> 5.00 | COc1cc(C(=O)Nc2ccc(-c3ccccc3Cl)c(CNCC(F)F)c2)ccc1S(N)(=O)=O [Example 488]
5.92 | COc1cc(C(=O)Nc2ccc(-c3ccccc3OC(F)(F)F)c(C)c2)ccc1S(N)(=O)=O [Example 499]
6.72 | CCCN(Cc1cc(C(=O)Nc2ccc(S(C)(=O)=O)cc2)ccc1-c1ccccc1OC(F)(F)F)CC1CC1 [Example 500]
6.54 | CCCN(CCC)Cc1cc(C(=O)Nc2ccc(S(C)(=O)=O)cc2)ccc1-c1ccccc1OC(F)(F)F [Example 505]
> 5.00 | CS(=O)(=O)c1ccc(NC(=O)c2ccc(-c3ccccc3OC(F)(F)F)c(CN3CCC3)c2)cc1 [Example 508]
6.55 | CS(=O)(=O)c1ccc(NC(=O)c2ccc(-c3ccccc3OC(F)(F)F)c(CN3CC[C@@H](F)C3)c2)cc1 [Example 510]
6.15 | CS(=O)(=O)c1ccc(NC(=O)c2ccc(-c3ccccc3OC(F)(F)F)c(CNC3CC3)c2)cc1 [Example 513]
5.54 | Cn1nccc1CNCc1cc(C(=O)Nc2ccc(S(C)(=O)=O)cc2)ccc1-c1ccccc1OC(F)(F)F [Example 520]
5.66 | CS(=O)(=O)c1ccc(NC(=O)c2ccc(-c3ccccc3OC(F)(F)F)c(CNc3ncccn3)c2)cc1 [Example 526]
> 5.00 | COc1cc(C(=O)Nc2ccc(-c3ccccc3C(F)(F)F)c(CNCC(F)(F)F)c2)ccc1S(N)(=O)=O [Example 528]
> 5.00 | COc1cc(NC(=O)c2ccc(-c3cccnc3-c3cccnc3)c(C)c2)ccc1S(N)(=O)=O [Example 531]
5.80 | COc1cc(NC(=O)c2ccc(-c3cccnc3C3CC3)c(C)c2)ccc1S(N)(=O)=O [Example 533]
5.27 | COc1cc(NC(=O)c2ccc(-c3cccc4cccnc34)c(C)c2)ccc1S(N)(=O)=O [Example 537]
> 5.00 | COCc1cc(NC(=O)c2ccc(S(N)(=O)=O)c(OC)c2)ccc1-c1cccnc1C1CC1 [Example 545]

— US20130116227A1, “BIARYL AMIDE DERIVATIVE OR PHARMACEUTICALLY ACCEPTABLE SALT THEREOF” (DAINIPPON SUMITOMO PHARMA CO., LTD., priority 2010, published 2013)
